Source: patent US6914045B2, “Glycopeptide antibiotics” (Wyeth Holdings Corporation, priority 2001, dated 2005)
In brackets after ≈: the same amount, converted by molar mass.

Tests used:
Experiment in all cases: in vitro antibacterial evaluation, MIC by broth dilution
Format in all cases: cell-based
[1] = test system: Streptococcus sp.; details: broth dilution, 18 hours at 35° C.
Summary of the method: (§1)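 MIC, the lowest antibiotic concentration preventing growth, was read across 64-0.06 μg/mL with 5×10^5 CFU/mL inoculum. Method followed NCCLS M7-A2 broth dilution using Mueller-Hinton II; Gram-positive strains covered recent methicillin-, penicillin- and/or vancomycin-resistant clinical isolates.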

[2] = test system: Enterococcus sp.; details: broth dilution, 18 hours at 35° C.; for MIC Enterococcus faecalis (ATCC 29212): strain ATCC 29212; for MIC Enterococcus faecium (GC 2243): strain GC 2243; for MIC Enterococcus faecalis (GC 4552): strain GC 4552; for MIC Enterococcus faecalis (GC 4553): strain GC 4553; for MIC Enterococcus faecalis (GC 4554): strain GC 4554; for MIC Enterococcus faecium (GC 4556): strain GC 4556; for MIC Enterococcus faecium (GC 4557): strain GC 4557; for MIC Enterococcus avium (GC 4558): strain GC 4558; for MIC Enterococcus faecalis (GC 6189): strain GC 6189
Summary of the method: as §1

[3] = test system: Escherichia coli
Summary of the method: as §1

[4] = test system: Staphylococcus sp.; details: broth dilution, 18 hours at 35° C.; for MIC Staphylococcus aureus (GC 1131): strain GC 1131
Summary of the method: as §1

MIC Streptococcus agalactiae (GC 4564) ([1]; Streptococcus agalactiae (GC 4564)): 1 µg/mL (≈ 0.683 µM)
MIC Streptococcus pneumoniae (ATCC 6301) ([1]; Streptococcus pneumoniae (ATCC 6301)): 0.5 µg/mL (≈ 0.341 µM)
MIC Streptococcus pneumoniae (GC 1894) ([1]; Streptococcus pneumoniae (GC 1894)): 0.12 µg/mL (≈ 0.0819 µM)
MIC Streptococcus pneumoniae (GC 4565) ([1]; Streptococcus pneumoniae (GC 4565)): 0.5 µg/mL (≈ 0.341 µM)
MIC Streptococcus pyogenes (GC 4563) ([1]; Streptococcus pyogenes (GC 4563)): 1 µg/mL (≈ 0.683 µM)
MIC Streptococcus pneumoniae (ATCC 6301) ([1]; strain ATCC 6301): 0.5 µg/mL (≈ 0.341 µM)
MIC Streptococcus pneumoniae (GC 1894) ([1]; strain GC 1894): 0.12 µg/mL (≈ 0.0819 µM)
MIC Streptococcus pyogenes (GC 4563) ([1]; strain GC 4563): 1 µg/mL (≈ 0.683 µM)
MIC Streptococcus agalactiae (GC 4564) ([1]; strain GC 4564): 1 µg/mL (≈ 0.683 µM)
MIC Streptococcus pneumoniae (GC 4565) ([1]; strain GC 4565): 0.5 µg/mL (≈ 0.341 µM)
MIC Enterococcus faecalis (GC 2242) ([2]; Enterococcus faecalis (GC 2242)): 16 µg/mL (≈ 10.9 µM)
MIC Enterococcus faecalis (GC 2691) ([2]; Enterococcus faecalis (GC 2691)): 16 µg/mL (≈ 10.9 µM)
MIC Enterococcus faecalis (GC 3059) ([2]; Enterococcus faecalis (GC 3059)): 16 µg/mL (≈ 10.9 µM)
MIC Enterococcus faecalis (ATCC 29212) ([2]; inoculum 5×10^5 CFU/mL): 16 µg/mL (≈ 10.9 µM)
MIC Enterococcus faecium (GC 2243) ([2]; inoculum 5×10^5 CFU/mL): 16 µg/mL (≈ 10.9 µM)
MIC Enterococcus faecalis (GC 4552) ([2]; inoculum 5×10^5 CFU/mL): 16 µg/mL (≈ 10.9 µM)
MIC Enterococcus faecalis (GC 4553) ([2]; inoculum 5×10^5 CFU/mL): 16 µg/mL (≈ 10.9 µM)
MIC Enterococcus faecalis (GC 4554) ([2]; inoculum 5×10^5 CFU/mL): 16 µg/mL (≈ 10.9 µM)
MIC Enterococcus faecium (GC 4556) ([2]; inoculum 5×10^5 CFU/mL): 16 µg/mL (≈ 10.9 µM)
MIC Enterococcus faecium (GC 4557) ([2]; inoculum 5×10^5 CFU/mL): 8 µg/mL (≈ 5.46 µM)
MIC Enterococcus avium (GC 4558) ([2]; inoculum 5×10^5 CFU/mL): 16 µg/mL (≈ 10.9 µM)
MIC Enterococcus faecalis (GC 6189) ([2]; inoculum 5×10^5 CFU/mL): 16 µg/mL (≈ 10.9 µM)
MIC Enterococcus faecalis (ATCC 29212) [2]: 16 µg/mL (≈ 10.9 µM)
MIC Enterococcus faecalis (GC 2242) ([2]; strain GC 2242): 16 µg/mL (≈ 10.9 µM)
MIC Enterococcus faecium (GC 2243) [2]: 16 µg/mL (≈ 10.9 µM)
MIC Enterococcus faecalis (GC 2691) ([2]; strain GC 2691): 16 µg/mL (≈ 10.9 µM)
MIC Enterococcus faecalis (GC 3059) ([2]; strain GC 3059): 16 µg/mL (≈ 10.9 µM)
MIC Enterococcus faecalis (GC 4552) [2]: 16 µg/mL (≈ 10.9 µM)
MIC Enterococcus faecalis (GC 4553) [2]: 16 µg/mL (≈ 10.9 µM)
MIC Enterococcus faecalis (GC 4554) [2]: 16 µg/mL (≈ 10.9 µM)
MIC Enterococcus faecium (GC 4556) [2]: 16 µg/mL (≈ 10.9 µM)
MIC Enterococcus faecium (GC 4557) [2]: 8 µg/mL (≈ 5.46 µM)
MIC Enterococcus avium (GC 4558) [2]: 16 µg/mL (≈ 10.9 µM)
MIC Enterococcus faecalis (GC 6189) [2]: 16 µg/mL (≈ 10.9 µM)
MIC Escherichia coli (ATCC 25922) ([3]; strain ATCC 25922, 18 hours at 35° C.): >64 µg/mL
MIC Escherichia coli (GC 4559) ([3]; strain GC 4559, 18 hours at 35° C.): >64 µg/mL
MIC Escherichia coli (GC 4560) ([3]; strain GC 4560, 18 hours at 35° C.): 2 µg/mL (≈ 1.37 µM)
MIC Staphylococcus aureus (GC 1131) ([4]; inoculum 5×10^5 CFU/mL): 8 µg/mL (≈ 5.46 µM)
MIC Staphylococcus aureus (ATCC 29213) ([4]; strain ATCC 29213): 4 µg/mL (≈ 2.73 µM)
MIC Staphylococcus aureus (GC 1131) [4]: 8 µg/mL (≈ 5.46 µM)
MIC Staphylococcus aureus (GC 3051) ([4]; strain GC 3051): 8 µg/mL (≈ 5.46 µM)
MIC Staphylococcus aureus (GC 3053) ([4]; strain GC 3053): 8 µg/mL (≈ 5.46 µM)
MIC Staphylococcus aureus (GC 4541) ([4]; strain GC 4541): 4 µg/mL (≈ 2.73 µM)
MIC Staphylococcus aureus (GC 4542) ([4]; strain GC 4542): 4 µg/mL (≈ 2.73 µM)
MIC Staphylococcus aureus-SMITH (GC 4543) ([4]; strain GC 4543): 4 µg/mL (≈ 2.73 µM)
MIC Staphylococcus aureus (GC 4544) ([4]; strain GC 4544): 8 µg/mL (≈ 5.46 µM)
MIC Staphylococcus aureus (GC 4545) ([4]; strain GC 4545): 4 µg/mL (≈ 2.73 µM)
MIC Coagulase Negative Staphylococcus (GC 4547) ([4]; strain GC 4547): 4 µg/mL (≈ 2.73 µM)
MIC Coagulase Negative Staphylococcus (GC 4548) ([4]; strain GC 4548): 2 µg/mL (≈ 1.37 µM)
MIC Coagulase Negative Staphylococcus (GC 4549) ([4]; strain GC 4549): 2 µg/mL (≈ 1.37 µM)
MIC Coagulase Negative Staphylococcus (GC 4551) ([4]; strain GC 4551): 8 µg/mL (≈ 5.46 µM)
MIC Coagulase Negative Staphylococcus (GC 6257) ([4]; strain GC 6257): 2 µg/mL (≈ 1.37 µM)
MIC Staphylococcus aureus-SMITH (GC 4543) ([4]; strain SMITH GC 4543): 4 µg/mL (≈ 2.73 µM)
Compound: CC(=O)n1cc(C2OCC3OC(OC4C(CO)OC(Oc5ccc(CC6NC(=O)C(C(C)c7ccccc7)NC(=O)CNC(=O)C(CO)NC(=O)C(C(O)C7CNC(=N)N7C7OC(CO)C(O)C(O)C7O)NC(=O)C(C(O)C7CNC(=N)N7)NC6=O)cc5)C(O)C4O)C(O)C(O)C3O2)c2ccccc21 (stereo not drawn) [Example 161]
MIC Staphylococcus haemolyticus (GC 4546) ([4]; strain GC 4546): 4 µg/mL (≈ 2.73 µM)
